# Measured values as given in ChEMBL document CHEMBL1154585, “Lorneamides A and B: two new aromatic amides from a southern Australian marine actinomycete” (2000).
# Tested on: Bacillus subtilis
# Experiment: Antibacterial activity against Bacillus subtilis
# Assay type: functional
compound,measurement,value
CCCC(O)/C=C/c1cc(C)ccc1/C=C/CC(N)=O (stereo unspecified) [LORNEAMIDE A],LD99,50 µg/mL
